Data: patent US7198945B2, “Cell having modified cell membrane” (Teruyuki Nagamune, priority 2001, dated 2007)
“Also recorded” adds a separate entry of the source.

How the values were obtained:
[1] = system: mouse fibroblast cell line NIH3T3; experiment: Anchoring of conjugates to cell membranes, observed by confocal laser scanning microscope; conditions: for Anchoring to cell surface: Mouse fibroblasts NIH3T3, 37° C. for 5 min, confocal microscope, 1000 magnifications
Procedure: Mouse fibroblasts NIH3T3 were cultured at 37° C. under 5% CO2 concentration using Dulbecco's Modified Eagle's Medium supplemented with 10% fetal calf serum and Glass bottom Microwell Dishes (35 mm dish, Uncoated, No. 0 Coverslip). The cells were cultured until the culture was approximately 80% confluent for 20 hours to 45 hours. […] The Glass bottom Microwell Dishes with NIH3T3 cells attached thereto were rinsed with 2 mL of phosphate buffered saline (the same as described above) which was subjected to filtration sterilization beforehand. Then, 0.1 mL of the polyethylene oxide oleylether-biotin conjugate solution was added to the NIH3T3 cells attached on the glass surface and a reaction was performed at 37° C. for 5 min. After the reaction, the cells were washed twice with 2 mL of phosphate buffered saline. Then, 0.1 mL of phosphate buffered saline containing 6.7 nM streptavidin and fluorescein conjugate (Molecular Probes; Cat# S-869) (hereinafter referred to as “fluorescein-labeled streptavidin”) was added to the cells, followed by incubation at 37° C. for 20 min.
The modification of the cell membranes was verified by observing the cells under a confocal laser scanning microscope (Leica).

[2] = system: mouse myeloid cell line 32D; experiment: Flow cytometer fluorescence intensity of treated suspended cells; assay type: cell-based; conditions: 37° C. for 5 min
Procedure: (§1) Mouse hybridoma 9E10 was cultured at 37° C. under 5% CO2 concentration using RPMI 1640 media (“Nissui” powder, NISSUI PHARMACEUTICAL CO., LTD., Cat# 05918) supplemented with 10% fetal calf serum. […] 32D, Ba/F3 and 9E10 cells (hereinafter, generically called as “suspended cells”) were centrifuged to collect 1×10^6 cells. Each of the cell was centrifuged for washing with 13 mL of phosphate buffered saline. […] Then the cells were centrifuged for washing once with 13 mL of phosphate buffered saline, and then 1 mL of phosphate buffered saline was added to each cell pellet.
(§2) Respective treated cell suspensions were observed under a flow cytometer (Coulter, EPICS-C). […] Thus, it was verified that the polyethylene oxide oleylether-EGFP can be anchored to suspended cells.

[3] = system: mouse pro-B cell line Ba/F3; experiment: as above; assay type: cell-based; conditions: 37° C. for 5 min
Procedure: as §1, §2

mouse hybridoma 9E10 = experiment: as above; assay type: cell-based; conditions: 37° C. for 5 min
Procedure: as §1, §2

[4] = system: suspended cells (32D, Ba/F3 and 9E10 cells); experiment: Anchoring of EGFP conjugate to suspended cells, flow cytometer; assay type: cell-based, mouse; parameters: Anchoring to cell surface: key to the marks not given beside the values
Procedure: as §1, §2

[5] = system: Chinese hamster ovarian follicle cell line CHO; experiment: Anchoring of EGFP conjugate to cell membranes, observed by confocal laser scanning microscope; assay type: cell-based; parameters: Anchoring to cell surface: key to the marks not given beside the values
Description: Therefore, it was verified that the conjugate can be anchored to cells other than mouse cells.

[6] = NIH3T3, confocal laser scanning microscope

Compound | fluorescence on cell membranes / anchoring (result in words) [1, 6] | Anchoring to cell surface [1] | also measured
NCCOCCOCCNC(=O)CCCC[C@@H]1SC[C@@H]2NC(=O)N[C@@H]21 [biotin-NH2, Biotin-PEO-Amine, reference compound] | no fluorescence from fluorescein was observed |  | 
Amino Polyethylene Oxide Oleylether (n=90, Average Molecular Weight of 4400)-biotin Conjugate [Example 12] | remain unchanged and still excellent | ++ | 
Fluorescent-Labeled (Fluorescein)-Polyethylene Oxide-Modified Dioleoyl Phosphatidyl Ethanolamine [Example 11] | Fluorescence from fluorescein was observed on the cell membranes of all the NIH3T3 cells | ++ | 
Oleic Acid-biotin [Example 15, reference compound] | no fluorescence from fluorescein was observed | − | 
Polyethylene Oxide Nonylphenyl Ether (n=40, Average Molecular Weight of 2160)-biotin Conjugate [Example 17, reference compound] | no fluorescence from fluorescein was observed | − | 
Polyethylene Oxide Oleylether (n=15; Average Molecular Weight of 1100)-biotin Conjugates [Example 7] |  | ++ | 
Polyethylene Oxide Oleylether (n=40; Average Molecular Weight of 2250)-biotin Conjugates [Example 8] |  | ++ | 
Polyethylene Oxide Oleylether (n=90, Average Molecular Weight of 4400)-Green Fluorescent Protein EGFP Conjugate [Example 4] | anchored to the cell membranes | ++ | relative value of fluorescence intensity of cells [2]: 30.1; relative value of fluorescence intensity of cells [3]: 36.7; relative value of fluorescence intensity of cells (mouse hybridoma 9E10): 49.6; Anchoring to cell surface ([4]; Suspended cell): ++; fluorescence intensity of cells compared to cells treated only with EGFP (result in words) ([4]; suspended cells, flow cytometer): an increased number of the cells with a stronger fluorescence intensity was observed; fluorescence from EGFP on cell membranes (result in words) ([5]; CHO cells, confocal laser scanning microscope): fluorescence from EGFP was observed on the cell membranes of all of the CHO cells; Anchoring to cell surface ([5]; Chinese hamster ovarian follicle cells CHO, confocal microscope): ++
Polyethylene Oxide Oleylether (n=90, Average Molecular Weight of 4400)-biotin Conjugate [Example 2] |  | ++ | time in which conjugates were anchored to all of the cell membranes ([1]; NIH3T3, 37° C.): ≤ 5 min; fluorescence on cell membranes / anchoring (result in words) ([1]; NIH3T3; confocal laser scanning microscope; average molecular weight of 4400)-biotin co): fluorescence deriving from fluorescein was observed on the cell membranes of all of the cells in the field; also recorded: fluorescence from fluorescein was specifically observed only in the cell membranes; binding of biotin to streptavidin after anchoring ([1]; NIH3T3, fluorescein-labeled streptavidin): not inhibited
Polyethylene Oxide Oleylether (n=180; Average Molecular Weight of 8400)-biotin Conjugates [Example 9] |  | ++ | 
Polyethylene Oxide Stearyl Ether (n=15: Average Molecular Weight of 1100)-biotin Conjugates [Example 10] | fluorescence from fluorescein was observed on the cell membranes of the NIH3T3 cells | + | 
polyethylene oxide oleylether succinate [reference compound] | no fluorescence from fluorescein was observed |  | 
